Experimental data taken from paper PMC6397705 (Molecular cancer therapeutics, 2019).

Tests used:
[1] = test system: PP2A; conditions: cited from earlier work
[2] = test system: HEK-293 cells; experiment: Western analysis of ribosomal S6; assay type: cell-based, human; conditions: wild-type HEK-293 cells, 0–2 μM, 3 hours
[3] = in vitro; assay type: cell-based; conditions: human, EC50, cytotoxicity in U-937 cells, 72 hours, n=16
[4] = target: T1, PPP5C (Homo sapiens, UniProt P53041); experiment: [32P]-phosphohistone phosphatase assay; assay type: biochemical
[5] = target: T2, PP2AC (Bos taurus, UniProt P67774); experiment: [32P]-phosphohistone phosphatase assay; assay type: biochemical, bovine
[6] = target: T2, PP2AC; experiment: Phosphopeptide; assay type: biochemical, bovine
[7] = target: T2, PP2AC; experiment: DiFMUP-based phosphatase inhibition assay; assay type: biochemical, bovine
[8] = target: T1, PPP5C; experiment: Phosphopeptide; assay type: biochemical
[9] = test system: PP2AC versus PPP5C; experiment: Selectivity over the three substrate assays; assay type: biochemical; conditions: with all three substrates
[10] = test system: PPP1C/PPP2AC/PPP5C/ PPP6C; conditions: cited from earlier work
[11] = test system: solid tumor patients; conditions: of 46 solid tumor patients, Phase I; cited from earlier work

T2 sequence (P67774 whole entry): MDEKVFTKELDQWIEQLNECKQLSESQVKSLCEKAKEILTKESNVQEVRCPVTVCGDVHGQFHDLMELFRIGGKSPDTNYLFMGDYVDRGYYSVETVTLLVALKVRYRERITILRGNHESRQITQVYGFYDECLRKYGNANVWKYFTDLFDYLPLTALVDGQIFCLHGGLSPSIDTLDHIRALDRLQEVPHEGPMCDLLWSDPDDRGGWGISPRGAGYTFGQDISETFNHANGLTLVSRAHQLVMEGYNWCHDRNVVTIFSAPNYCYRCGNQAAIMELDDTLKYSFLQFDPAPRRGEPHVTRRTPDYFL
T1 sequence (P53041 whole entry): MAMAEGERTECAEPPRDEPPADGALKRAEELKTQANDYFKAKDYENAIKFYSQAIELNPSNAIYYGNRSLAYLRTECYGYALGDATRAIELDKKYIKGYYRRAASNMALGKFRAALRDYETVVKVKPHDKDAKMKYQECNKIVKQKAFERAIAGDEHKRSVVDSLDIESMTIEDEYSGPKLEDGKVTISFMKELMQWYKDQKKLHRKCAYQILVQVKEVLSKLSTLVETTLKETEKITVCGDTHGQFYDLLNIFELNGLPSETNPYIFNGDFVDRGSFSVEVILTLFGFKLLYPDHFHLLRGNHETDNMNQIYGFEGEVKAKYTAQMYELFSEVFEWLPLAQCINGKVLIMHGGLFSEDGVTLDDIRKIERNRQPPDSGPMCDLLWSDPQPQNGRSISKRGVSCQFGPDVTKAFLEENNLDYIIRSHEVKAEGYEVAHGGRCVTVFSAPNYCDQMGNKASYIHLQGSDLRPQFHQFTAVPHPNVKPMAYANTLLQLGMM

In the case of “4-(3-carboxy-7-oxa-bicyclo [2.2.1] heptane-2-carbonyl)piperazine-1-carboxylic acid tert- butyl ester [LB-102]”, the “selectivity for PP2A” value [1] is listed as > 10,000 fold.

In the case of CN1CCN(C(=O)C2C3CCC(O3)C2C(=O)O)CC1 (centres unmarked) [LB-100, 3-(4-methylpiperazine-1-carbonyl)-7-oxabicyclo[2.2.1]heptane-2-carboxylic acid], the “phosphorylation of ribosomal protein S6 (Ser235/236)” value [2] is reported as “induced in the wild-type HEK-293 cells by LB-100 in a dose-dependent manner”, the EC50 ([3]; LB-100 alone) is reported as 11.7 µM and the EC50 ([3]; LB-100 and 500 nM dexamethasone) is reported as 5.48 µM. For the same molecule, the IC50 [4] was 4.9 µM, the IC50 [5] was 640 nM and the IC50 [6] was 1270 nM. For the same molecule, the IC50 [7] was 390 nM, the IC50 [8] was 6.64 µM and the “selectivity for PP2AC versus PPP5C” value [9] was 4–7 fold.

For C[C@@]12C(=O)OC(=O)[C@]1(C)[C@H]1CC[C@@H]2O1 [cantharidin], the “affinity for ser/thr phosphatases 1, 2A, 5, and 6” value ([10]; catalytic inhibitor) is listed as “submicromolar to low micromolar”.

In the case of C[C@@](O)(/C=C/[C@H]1CC=CC(=O)O1)[C@@H](C[C@@H](O)\C=C/C=C\C=C\CO)OP(=O)(O)O [fostriecin], the “disease stability, number of patients” value [11] is listed as 16.

In the case of Microcystin, the IC50 [10] is listed as less than 2 nM.

In the case of nodularin, the IC50 [10] is listed as less than 2 nM.
